Results reported in patent publication US20080167330A1, “Carbamoylsulphoximides as protein kinase inhibitors” (priority 2006, published 2008).

Key:
CDK1/CycB = target: T1, CDK1/CycB (Homo sapiens, UniProt P06493); experiment: CDK1/CycB kinase assay; type: biochemical; conditions: 0.5 μM ATP
T1 construct: GST; purchased ProQinase GmbH, Freiburg; host or cells: baculovirus-infected insect cells (Sf9)
Experimental: Recombinant CDK1- and CycB-GST fusion proteins, purified from baculovirus-infected insect cells (Sf9), were purchased from ProQinase GmbH, Freiburg. The histone IIIS used as kinase substrate can be purchased from Sigma.
CDK1/CycB (5 ng/μL) was incubated in the presence of various concentrations of test substances (0 μM, and within the range 0.01-100 μM) in 40 μL of assay buffer [50 mM Tris/HCl pH 8.0, 10 mM MgCl2, 0.1 mM Na ortho-vanadate, 1.0 mM dithiothreitol, 0.025% PEG 20000, 0.5 μM ATP, 10 μM histone IIIS, 0.2 μCi/measurement point ^33P-gamma ATP, 0.05% NP40, 1.25% dimethyl sulphoxide] at 22° C. for 10 min. The reaction was stopped by adding EDTA solution (250 mM, pH 8.0, 15 μl/measurement point). 15 μl of each reaction mixture were loaded onto P30 filter strips (from Wallac), and non-incorporated ^33P-ATP was removed by washing the filter strips three times in 0.5% strength phosphoric acid for 10 min each time. After the filter strips had been dried at 70° C. for 1 hour, the filter strips were covered with scintillator strips (MeltiLex™ A, from Wallac) and baked at 90° C. for 1 hour. The amount of incorporated ^33P (substrate phosphorylation) was determined by scintillation measurement in a gamma radiation counter (Wallac).
The measured data were normalized to 0% inhibition (enzyme reaction without inhibitor) and 100% inhibition (all assay components except enzyme). The IC50 values were determined by means of a 4-parameter fit using the company's own software.

human Aurora-C = target: T2, human Aurora-C (Homo sapiens, UniProt Q9UQB9); experiment: Aurora-C kinase assay (HTRF); type: biochemical; conditions: 10 μM ATP
T2 construct: GST; made in house; host or cells: transiently transfected HEK293 cells
T2 sequence (Q9UQB9 1-309): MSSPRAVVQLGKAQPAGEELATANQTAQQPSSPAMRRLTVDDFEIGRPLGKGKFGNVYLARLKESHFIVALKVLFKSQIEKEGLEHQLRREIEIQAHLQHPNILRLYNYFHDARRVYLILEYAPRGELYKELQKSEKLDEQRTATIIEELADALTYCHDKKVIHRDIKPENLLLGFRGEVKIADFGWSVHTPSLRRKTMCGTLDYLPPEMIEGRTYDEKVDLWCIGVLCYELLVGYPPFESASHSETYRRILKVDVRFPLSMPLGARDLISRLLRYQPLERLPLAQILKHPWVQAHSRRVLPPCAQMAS
Experimental: The Aurora-C inhibitory activity of the substances of this invention was measured in the Aurora-C-HTRF assay (HTRF=Homogeneous Time Resolved Fluorescence) described in the following paragraphs.
Recombinant fusion protein of GST and human Aurora-C was expressed in transiently transfected HEK293 cells and purified by affinity chromatography on glutathione-Sepharose. The substrate used for the kinase reaction was the biotinylated peptide biotin-Ttds-FMRLRRLSTKYRT (C terminus in amide form) which can be purchased for example from JERINI Peptide Technologies (Berlin). Aurora-C was incubated in the presence of various concentrations of test substances in 5 μL of assay buffer [25 mM Hepes/NaOH pH 7.4, 0.5 mM MnCl2, 2.0 mM dithiothreitol, 0.1 mM sodium orthovanadate, 10 μM adenosine triphosphate (ATP), […] substrate, 0.01% (v/v) TritonX-100 (Sigma), 0.05% (w/v) bovine serum albumin (BSA), 1% (v/v) dimethyl sulphoxide] at 22° C. for 60 min. The concentration of Aurora-C was adapted to the particular activity of the enzyme and adjusted so that the assay operated in the linear range. Typical concentrations were in the region of 0.3 nM. The reaction was stopped by adding 5 μl of a solution of HTRF detection reagents (0.2 μM streptavidin-XLent and 1.4 nM anti-phospho-(Ser/Thr)-Akt substrate-Eu-cryptate (Cis biointernational, France, product No. 61P02KAE), a Europium-cryptate-labelled phospho-(Ser/Thr)-Akt substrate antibody [product #9611B, Cell Signaling Technology, Danvers, Mass., USA]) in aqueous EDTA solution (40 mM EDTA, 400 mM KF, 0.05% (w/v) bovine serum albumin (BSA) in 25 mM HEPES/NaOH pH 7.0).
The resulting mixture was incubated at 22° C. for 1 h in order to allow formation of a complex of the biotinylated phosphorylated substrate and the detection reagents. The amount of phosphorylated substrate was then estimated by measuring the resonance energy transfer from the anti-phospho-(Ser/Thr)-Akt substrate-Eu cryptate to the streptavidin-XLent. For this purpose, the fluorescence emissions at 620 nm and 665 nm after excitation at 350 nm were measured in an HTRF measuring instrument, e.g. a Rubystar (BMG Labtechnologies, Offenburg, Germany) or a Viewlux (Perkin-Elmer). The ratio of the emissions at 665 nm and at 622 nm was taken as a measure of the amount of phosphorylated substrate. The data were normalized (enzymic reaction without inhibitor=0% inhibition, all other assay components but no enzyme=100% inhibition) and IC50 values were calculated with a 4-parameter fit using an inhouse software.

[1] = system: human MCF7 breast tumour cells; experiment: MCF7 proliferation assay; type: cell-based; conditions: MCF7, 96 h, 4 days incubation, crystal violet staining
Experimental: Cultivated human MCF7 breast tumour cells (ATCC HTB-22) were plated out in a density of 5000 cells/measurement point in 200 μl of growth medium (RPMI1640, 10% foetal calf serum, 2 mU/mL insulin, 0.1 nM oestradiol) in a 96-well multititre plate. After 24 hours, the cells from a plate (zero plate) were stained with crystal violet (see below), while the medium in the other plates was replaced by fresh culture medium (200 μl) to which the test substances had been added in various concentrations (0 μM, and in the range 0.01-30 μM; the final concentration of the solvent dimethyl sulphoxide was 0.5%). The cells were incubated in the presence of the test substances for 4 days. The cell proliferation was determined by staining the cells with crystal violet: the cells were fixed by adding 20 μl/measurement point of an 11% strength glutaraldehyde solution at room temperature for 15 min. After the fixed cells had been washed three times with water, the plates were dried at room temperature. The cells were stained by adding 100 μl/measurement point of a 0.1% strength crystal violet solution (pH adjusted to pH 3 by adding acetic acid). After the stained cells had been washed three times with water, the plates were dried at room temperature. The dye was dissolved by adding 100 μl/measurement point of a 10% strength acetic acid solution, and the extinction was determined by photometry at a wavelength of 595 nm. The percentage change in cell growth was calculated by normalizing the measurements to the extinctions of the zero point plate (=0%) and the extinction of the untreated (0 μM) cells (=100%). The IC50 values were determined by means of a 4-parameter fit using the company's own software.

T1 sequence (P06493 whole entry): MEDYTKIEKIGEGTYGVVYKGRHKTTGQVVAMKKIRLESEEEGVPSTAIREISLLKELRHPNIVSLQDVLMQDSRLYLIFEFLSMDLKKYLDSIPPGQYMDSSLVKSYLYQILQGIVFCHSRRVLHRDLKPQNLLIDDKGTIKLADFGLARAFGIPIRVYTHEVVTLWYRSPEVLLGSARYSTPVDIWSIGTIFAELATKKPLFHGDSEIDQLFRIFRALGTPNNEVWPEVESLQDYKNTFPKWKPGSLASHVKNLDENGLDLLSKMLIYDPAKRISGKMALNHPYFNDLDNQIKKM
T1 sequence (P14635 whole entry partner): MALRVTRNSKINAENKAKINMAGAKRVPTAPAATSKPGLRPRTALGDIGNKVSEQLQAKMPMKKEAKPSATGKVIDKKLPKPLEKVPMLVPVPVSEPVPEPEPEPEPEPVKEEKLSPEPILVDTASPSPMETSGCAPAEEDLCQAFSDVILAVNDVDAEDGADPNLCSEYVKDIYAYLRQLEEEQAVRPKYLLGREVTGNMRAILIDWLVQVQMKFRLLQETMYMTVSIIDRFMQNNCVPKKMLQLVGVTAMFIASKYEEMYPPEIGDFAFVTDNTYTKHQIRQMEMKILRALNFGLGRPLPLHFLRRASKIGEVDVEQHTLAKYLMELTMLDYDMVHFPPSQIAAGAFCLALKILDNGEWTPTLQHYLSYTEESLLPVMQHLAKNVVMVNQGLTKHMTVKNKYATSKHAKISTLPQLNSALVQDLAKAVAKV

Structure (SMILES): C[C@@H](Nc1nc(Nc2ccc(C(=O)N=S(C)(C)=O)cc2)ncc1Br)C(C)(C)O [Example 19, N-{4-[(5-Bromo-4-{[(R)-2-hydroxy-1,2-dimethylpropyl]amino}pyrimidin-2-yl)amino]benzoyl}S,S-dimethylsulphoximide]
- IC50 (CDK1/CycB): 42 nM
- IC50 (human Aurora-C): 740 nM
- IC50 [1]: 250 nM

Structure (SMILES): C[C@@H](O)[C@@H](C)Oc1nc(Nc2ccc(C(=O)N=S(C)(C)=O)cc2)ncc1Br [Example 20, N-{4-[(5-Bromo-4-{[(1R,2R)-2-hydroxy-1-methylpropyl]oxy}pyrimidin-2-yl)amino]benzoyl}-S,S-dimethylsulphoximide]
- IC50 (CDK1/CycB): 17 nM
- IC50 (human Aurora-C): 310 nM
- IC50 [1]: 310 nM
